Tests used:
[1] = system: Human ovarian cancer cell line SKOV3; settings: 24 h
[2] = system: Human ovarian cancer cell line SKOV3; test: Phototoxicity in SKOV3 cells (660 nm laser or LED, AlamarBlue viability); type: cell-based; settings: Homo sapiens, SK-OV-3, light or radiation study; SKOV3, 24 h uptake, 660 nm laser 50 mW/cm^2 for 5 mins (15 J/cm^2), viability 24 h later; read-out: Phototoxicity μM (IC90)
From the text: All data are shown as mean±SD (where appropriate).
Media was then replaced with fresh media containing AlamarBlue, and % viable cells remaining assessed as above. […] All measurements were made in quadruplicate.

| SMILES | Dark toxicity μM (IC10) [1] | IC90 [2] |
| --- | --- | --- |
| CCC1=C(C)c2cc3[nH]c(cc4nc(c(C)c5cc(C)c(cc1n2)[nH]5)[C@@H](CCC(=O)N(C)CCCO)[C@@H]4C)c(C)c3C(C)OCCCS[C@@H]1O[C@H](CO)[C@@H](O)[C@H](O)[C@H]1O (stereo partly drawn) [Compound 2, phyllochlorin N-3-hydroxypropyl-N-methyl propylamide propyloxythio-D-glucose] | 7.640 µM | 0.03 µM |
| CCC1=C(C)c2cc3[nH]c(cc4nc(c(C)c5cc(C)c(cc1n2)[nH]5)[C@@H](CCC(=O)OC)[C@@H]4C)c(C)c3CO [Compound 3, phyllochlorin 13-hydroxymethyl methyl ester] | 45.720 µM | 0.308 µM |
| CCC1=C(C)c2cc3[nH]c(cc4nc(c(C)c5cc(C)c(cc1n2)[nH]5)[C@@H](CCC(=O)OC)[C@@H]4C)c(C)c3CO[C@@H]1O[C@H](CO)[C@@H](O)[C@H](O)[C@H]1O [Compound 4, phyllochlorin 13-hydroxymethyl-β-D-glucoside ether methyl ester] | 0.775 µM | 0.099 µM |
| CCC1=C(C)c2cc3[nH]c(cc4nc(c(C)c5cc(C)c(cc1n2)[nH]5)[C@@H](CCC(=O)N(C)CCCO)[C@@H]4C)c(C)c3CO[C@@H]1O[C@H](CO)[C@@H](O)[C@H](O)[C@H]1O [Compound 6, phyllochlorin N-3-hydroxypropyl-N-methyl-propylamide 13-hydroxymethyl-β-D-glucoside ether] | 0.528 µM | 0.084 µM |
| CCC1=C(C)c2cc3[nH]c(cc4nc(c(C)c5cc(C)c(cc1n2)[nH]5)[C@@H](CCC(=O)OC)[C@@H]4C)c(C)c3CO[C@@H]1O[C@H](CO)[C@@H](O[C@H]2O[C@H](CO)[C@@H](O)[C@H](O)[C@H]2O)[C@H](O)[C@H]1O [Compound 8, phyllochlorin 13-hydroxymethyl-β-D-maltose ether methyl ester] | 7.442 µM | 0.665 µM |
| CCC1=C(C)c2cc3[nH]c(cc4nc(c(C)c5cc(C)c(cc1n2)[nH]5)[C@@H](CCC(=O)N(C)C[C@H](O)[C@@H](O)[C@H](O)[C@H](O)CO)[C@@H]4C)c(C)c3CO[C@@H]1O[C@H](CO)[C@@H](O)[C@H](O)[C@H]1O [Compound 10, phyllochlorin N-meglumine-propylamide-13-hydroxymethyl-β-D-glucoside ether] | 4.732 µM | 1.5 µM |
| CCC1=C(C)c2cc3[nH]c(cc4nc(c(C)c5cc(C)c(cc1n2)[nH]5)[C@@H](CCC(=O)N(C)CCCO[C@@H]1O[C@H](CO)[C@@H](O)[C@H](O)[C@H]1O)[C@@H]4C)c(C)c3CO[C@@H]1O[C@H](CO)[C@@H](O)[C@H](O)[C@H]1O [Compound 12, phyllochlorin 13-hydroxymethyl-β-D-glucoside ether-β-D-glucosyl-N-methylpropylamide] | 2.466 µM | 0.353 µM |
| CCC1=C(C)c2cc3[nH]c(cc4nc(c(C)c5cc(C)c(cc1n2)[nH]5)[C@@H](CCC(=O)N(CCOCCOCCOC)CCOCCOCCOC)[C@@H]4C)c(C)c3CO [Compound 13, phyllochlorin 13-hydroxymethyl-N,N-bis-PEG3OMe propylamide] | 60.750 µM | 0.421 µM |
| CCC1=C(C)c2cc3[nH]c(cc4nc(c(C)c5cc(C)c(cc1n2)[nH]5)[C@@H](CCC(=O)N(CCOCCOCCOC)CCOCCOCCOC)[C@@H]4C)c(C)c3CO[C@@H]1O[C@H](CO)[C@@H](O)[C@H](O)[C@H]1O [Compound 14, phyllochlorin 13-hydroxymethyl-β-D-glucoside ether-N,N-bis-PEG3OMe propylamide] | 0.626 µM | 0.186 µM |
| CCC1=C(C)c2cc3[nH]c(cc4nc(c(C)c5cc(C)c(cc1n2)[nH]5)[C@@H](CCC(=O)NCCOCCO[C@@H]1O[C@H](CO)[C@@H](O)[C@H](O)[C@H]1O)[C@@H]4C)c(C)c3CO[C@@H]1O[C@H](CO)[C@@H](O)[C@H](O)[C@H]1O [Compound 16, phyllochlorin 13-hydroxymethyl-β-D-glucoside ether-β-D-1-glucose-2-ethoxy-N-ethanamine] | 5.929 µM | 1.82 µM |
| CCC1=C(C)c2cc3[nH]c(cc4nc(c(C)c5cc(C)c(cc1n2)[nH]5)[C@@H](CCC(=O)O)[C@@H]4C)c(C)c3CO [Compound 17, phyllochlorin 13-hydroxymethyl] | 25.000 µM | 0.891 µM |
| CCC1=C(C)c2cc3[nH]c(cc4nc(c(C)c5cc(C)c(cc1n2)[nH]5)[C@@H](CCC(=O)N(C)CCCOCCC[P+](c1ccccc1)(c1ccccc1)c1ccccc1)[C@@H]4C)c(C)c3CO [Compound 18] | 4.393 µM | 0.007 µM |
| CCC1=C(C)c2cc3[nH]c(cc4nc(c(C)c5cc(C)c(cc1n2)[nH]5)[C@@H](CCC(=O)N(C)CCCOCCC[P+](c1ccccc1)(c1ccccc1)c1ccccc1)[C@@H]4C)c(C)c3CO[C@@H]1O[C@H](CO)[C@@H](O)[C@H](O)[C@H]1O [Compound 19] | 0.090 µM | 0.018 µM |
| CCC1=C(C)c2cc3[nH]c(cc4nc(c(C)c5cc(C)c(cc1n2)[nH]5)[C@@H](CCC(=O)OC)[C@@H]4C)c(C)c3C(C)OCCC[n+]1ccccc1 (some centres unmarked) [Compound 20, phyllochlorin methyl ester 3-pyridinium bromide propyl ether] | 1.998 µM | 0.003 µM |
| CCC1=C(C)c2cc3[nH]c(cc4nc(c(C)c5cc(C)c(cc1n2)[nH]5)[C@@H](CCC(=O)OC)[C@@H]4C)c(C)c3C(C)OCCOCC[n+]1ccccc1 (some centres unmarked) [Compound 22, phyllochlorin methyl ester 2-(2-pyridiniumethoxy)ethyl ether chloride] | 2.228 µM | 0.004 µM |
| CCC1=C(C)c2cc3[nH]c(cc4nc(c(C)c5cc(C)c(cc1n2)[nH]5)[C@@H](CCC(=O)OC)[C@@H]4C)c(C)c3C(C)OCCOCC[P+](c1ccccc1)(c1ccccc1)c1ccccc1 (some centres unmarked) [Compound 23, phyllochlorin methyl ester 2-(2-triphenylphosphoniumethoxy)ethyl ether chloride] | 3.086 µM | 0.012 µM |
| CCC1=C(C)c2cc3[nH]c(cc4nc(c(C)c5cc(C)c(cc1n2)[nH]5)[C@@H](CCC(=O)N(C)CCOCCOCCOCCOCCOCCOC)[C@@H]4C)c(C)c3CO [Compound 24, phyllochlorin 13-hydroxymethyl N-methyl-N-3,6,9,12,15,18-hexaoxanonadecyl propylamide] | 41.190 µM | 0.503 µM |
| CCC1=C(C)c2cc3[nH]c(cc4nc(c(C)c5cc(C)c(cc1n2)[nH]5)[C@@H](CCC(=O)N(C)CCOCCOCCOCCOCCOCCOC)[C@@H]4C)c(C)c3CO[C@@H]1O[C@H](CO)[C@@H](O)[C@H](O)[C@H]1O [Compound 25, phyllochlorin 13-hydroxymethyl-β-D-glucoside ether-β-D-glucosel-N-methyl-N-3,6,9,12,15,18-hexaoxanonadecyl propylamide] | 0.279 µM | 0.146 µM |
| CCC1=C(C)c2cc3[nH]c(cc4nc(c(C)c5cc(C)c(cc1n2)[nH]5)[C@@H](CCC(=O)N(C)CCCS[C@@H]1O[C@H](CO)[C@@H](O)[C@H](O)[C@H]1O)[C@@H]4C)c(C)c3C(C)O (stereo partly drawn) [Compound 26, 13-hydroxyethylphyllochlorin-β-D-1-thioglucose-N-methylpropylamide] | 21.550 µM | 0.248 µM |

Reference: patent US20250177533A1, “PHOTODYNAMIC THERAPY AND DIAGNOSIS” (RMW CHO Group Limited, priority 2021, published 2025)
